Measured values: ChEMBL document CHEMBL1201862, “PubChem BioAssay data set” (2004)
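All cell lines were grown in 96-well plates and treated with compound for 48 hours. GI50 marks 50% less growth.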 The source made the active and inactive calls. Rule as the data show it: active = GI50 up to about 1.1 µM and inactive = higher.

Experiments:
Experiment in all cases: NCI anticancer screen, dose series, 48 h
[1] = tested on: MDA-MB-231
[2] = tested on: EKVX
[3] = tested on: HT-29
[4] = tested on: LOX IMVI
[5] = tested on: TK-10
[6] = tested on: MCF7
[7] = tested on: SN12C
[8] = tested on: RXF 393
[9] = tested on: OVCAR-8
[10] = tested on: SK-MEL-5
[11] = tested on: HCT-15
[12] = tested on: SW-620
[13] = tested on: OVCAR-5
[14] = tested on: DU-145
[15] = tested on: 786-0
[16] = tested on: CAKI-1
[17] = tested on: M14
[18] = tested on: NCI/ADR-RES
[19] = tested on: SF-295
[20] = tested on: PC-3
[21] = tested on: KM12
[22] = tested on: SK-MEL-28
[23] = tested on: HOP-62
[24] = tested on: SF-268
[25] = tested on: Malme-3M
[26] = tested on: MDA-N
[27] = tested on: OVCAR-3
[28] = tested on: UACC-257
[29] = tested on: BT-549
[30] = tested on: NCI-H522
[31] = tested on: IGROV-1
[32] = tested on: Hs-578T
[33] = tested on: UO-31
[34] = tested on: HCC 2998
[35] = tested on: K562
[36] = tested on: UACC-62
[37] = tested on: COLO 205
[38] = tested on: ACHN
[39] = tested on: MOLT-4
[40] = tested on: HOP-92
[41] = tested on: RPMI-8226
[42] = tested on: SNB-75
[43] = tested on: CCRF-CEM
[44] = tested on: MDA-MB-435
[45] = tested on: SK-OV-3
[46] = tested on: NCI-H226
[47] = tested on: T47D
[48] = tested on: A549
[49] = tested on: SNB-19
[50] = tested on: SF-539
[51] = tested on: HL-60
[52] = tested on: SR
[53] = tested on: HCT-116
[54] = tested on: OVCAR-4
[55] = tested on: U-251
[56] = tested on: SK-MEL-2
[57] = tested on: NCI-H23
[58] = tested on: NCI-H460

CC1(c2nc3ccccc3[nH]2)CCC(C(=O)O)C(C)(C)O1 (stereo unspecified)
GI50 [1]: > 100 µM (inactive)
GI50 [2]: > 100 µM (inactive)
GI50 [3]: > 100 µM (inactive)
GI50 [4]: > 100 µM (inactive)
GI50 [5]: > 100 µM (inactive)
GI50 [6]: > 100 µM (inactive)
GI50 [7]: > 100 µM (inactive)
GI50 [8]: > 100 µM (inactive)
GI50 [9]: > 100 µM (inactive)
GI50 [10]: > 100 µM (inactive)
GI50 [11]: > 100 µM
GI50 [12]: > 100 µM (inactive)
GI50 [13]: > 100 µM (inactive)
GI50 [14]: > 100 µM (inactive)
GI50 [15]: > 100 µM (inactive)
GI50 [16]: > 100 µM (inactive)
GI50 [17]: > 100 µM (inactive)
GI50 [18]: > 100 µM (inactive)
GI50 [19]: > 100 µM (inactive)
GI50 [20]: > 100 µM (inactive)
GI50 [21]: 26.5 µM (inactive)
GI50 [22]: > 100 µM (inactive)
GI50 [23]: > 100 µM (inactive)
GI50 [24]: > 100 µM (inactive)
GI50 [25]: > 100 µM (inactive)
GI50 [26]: > 100 µM (inactive)
GI50 [27]: > 100 µM (inactive)
GI50 [28]: > 100 µM (inactive)
GI50 [29]: > 100 µM (inactive)
GI50 [30]: > 100 µM (inactive)
GI50 [31]: > 100 µM (inactive)
GI50 [32]: > 100 µM (inactive)
GI50 [33]: > 100 µM (inactive)
GI50 [34]: > 100 µM (inactive)
GI50 [35]: > 100 µM (inactive)
GI50 [36]: > 100 µM (inactive)
GI50 [37]: > 100 µM (inactive)
GI50 [38]: > 100 µM (inactive)
GI50 [39]: > 100 µM (inactive)
GI50 [40]: > 100 µM (inactive)
GI50 [41]: > 100 µM (inactive)
GI50 [42]: 39.8 µM (inactive)
GI50 [43]: > 100 µM (inactive)
GI50 [44]: > 100 µM (inactive)
GI50 [45]: > 100 µM (inactive)
GI50 [46]: > 100 µM (inactive)
GI50 [47]: > 100 µM (inactive)
GI50 [48]: > 100 µM (inactive)
GI50 [49]: > 100 µM (inactive)
GI50 [50]: > 100 µM (inactive)
GI50 [51]: > 100 µM (inactive)
GI50 [52]: > 100 µM (inactive)
GI50 [53]: > 100 µM (inactive)
GI50 [54]: > 100 µM (inactive)
GI50 [55]: > 100 µM (inactive)
GI50 [56]: > 100 µM (inactive)
GI50 [57]: > 100 µM (inactive)

O=C(C(=O)n1ccc2ccccc21)c1c[nH]c2ccccc12
GI50 [1]: > 10 µM (inactive)
GI50 [2]: > 10 µM (inactive)
GI50 [3]: > 10 µM (inactive)
GI50 [4]: > 10 µM (inactive)
GI50 [5]: > 10 µM (inactive)
GI50 [6]: > 10 µM (inactive)
GI50 [7]: > 10 µM (inactive)
GI50 [8]: > 10 µM (inactive)
GI50 [9]: > 10 µM (inactive)
GI50 [10]: > 10 µM (inactive)
GI50 [11]: > 10 µM
GI50 [12]: > 10 µM (inactive)
GI50 [13]: > 10 µM (inactive)
GI50 [14]: > 10 µM (inactive)
GI50 [15]: > 10 µM (inactive)
GI50 [58]: > 10 µM (inactive)
GI50 [16]: > 10 µM (inactive)
GI50 [17]: > 10 µM (inactive)
GI50 [18]: > 10 µM (inactive)
GI50 [19]: > 10 µM (inactive)
GI50 [20]: > 10 µM (inactive)
GI50 [21]: > 10 µM (inactive)
GI50 [22]: > 10 µM (inactive)
GI50 [23]: > 10 µM (inactive)
GI50 [24]: > 10 µM (inactive)
GI50 [25]: > 10 µM (inactive)
GI50 [26]: > 10 µM (inactive)
GI50 [27]: > 10 µM (inactive)
GI50 [28]: > 10 µM (inactive)
GI50 [29]: > 10 µM (inactive)
GI50 [30]: > 10 µM (inactive)
GI50 [31]: > 10 µM (inactive)
GI50 [32]: > 10 µM (inactive)
GI50 [33]: > 10 µM (inactive)
GI50 [34]: > 10 µM (inactive)
GI50 [35]: > 10 µM (inactive)
GI50 [36]: > 10 µM (inactive)
GI50 [37]: > 10 µM (inactive)
GI50 [38]: > 10 µM (inactive)
GI50 [39]: > 10 µM (inactive)
GI50 [40]: > 10 µM (inactive)
GI50 [41]: > 10 µM (inactive)
GI50 [42]: > 10 µM (inactive)
GI50 [43]: > 10 µM (inactive)
GI50 [44]: > 10 µM (inactive)
GI50 [45]: > 10 µM (inactive)
GI50 [46]: > 10 µM (inactive)
GI50 [47]: > 10 µM (inactive)
GI50 [48]: > 10 µM (inactive)
GI50 [49]: > 10 µM (inactive)
GI50 [50]: > 10 µM (inactive)
GI50 [51]: > 10 µM (inactive)
GI50 [52]: > 10 µM (inactive)
GI50 [53]: > 10 µM (inactive)
GI50 [54]: > 10 µM (inactive)
GI50 [55]: > 10 µM (inactive)
GI50 [56]: > 10 µM (inactive)
GI50 [57]: > 10 µM (inactive)

CCN(CC)CCC(=O)Nc1ccc2sc3ccccc3c(=O)c2n1
GI50 [1]: > 10 µM (inactive)
GI50 [2]: 25.9 µM (inactive)
GI50 [3]: 36.7 µM (inactive)
GI50 [4]: 14 µM (inactive)
GI50 [5]: 18 µM (inactive)
GI50 [6]: 13.3 µM (inactive)
GI50 [7]: 23 µM (inactive)
GI50 [9]: 17.5 µM (inactive)
GI50 [10]: 17.9 µM (inactive)
GI50 [11]: 19.3 µM
GI50 [12]: 12 µM (inactive)
GI50 [13]: 18.9 µM (inactive)
GI50 [14]: 23.4 µM (inactive)
GI50 [15]: 12.5 µM (inactive)
GI50 [58]: 23.1 µM (inactive)
GI50 [16]: 14 µM (inactive)
GI50 [17]: 13.8 µM (inactive)
GI50 [18]: 19.8 µM (inactive)
GI50 [19]: 21.2 µM (inactive)
GI50 [20]: 15.4 µM (inactive)
GI50 [21]: 16.3 µM (inactive)
GI50 [22]: 16.7 µM (inactive)
GI50 [23]: 16 µM (inactive)
GI50 [24]: 17.1 µM (inactive)
GI50 [25]: 23.4 µM (inactive)
GI50 [26]: 14.1 µM (inactive)
GI50 [27]: 19.2 µM (inactive)
GI50 [28]: 17.3 µM (inactive)
GI50 [29]: 15.6 µM (inactive)
GI50 [30]: 14.8 µM (inactive)
GI50 [31]: 16.5 µM (inactive)
GI50 [32]: 20.7 µM (inactive)
GI50 [33]: 10.4 µM (inactive)
GI50 [34]: 19.7 µM (inactive)
GI50 [35]: 11 µM (inactive)
GI50 [36]: 17.7 µM (inactive)
GI50 [37]: 12.9 µM (inactive)
GI50 [38]: 16.3 µM (inactive)
GI50 [39]: 7.78 µM (inactive)
GI50 [40]: 0.02 µM (active)
GI50 [41]: 12.1 µM (inactive)
GI50 [42]: 8.55 µM (inactive)
GI50 [43]: 14.5 µM (inactive)
GI50 [44]: 13.1 µM (inactive)
GI50 [45]: 20.6 µM (inactive)
GI50 [47]: 16.1 µM (inactive)
GI50 [48]: 17.3 µM (inactive)
GI50 [49]: 16.7 µM (inactive)
GI50 [50]: 18 µM (inactive)
GI50 [51]: 7.98 µM (inactive)
GI50 [52]: 15.9 µM (inactive)
GI50 [53]: 12.5 µM (inactive)
GI50 [54]: 22.9 µM (inactive)
GI50 [55]: 14.9 µM (inactive)
GI50 [56]: 19.8 µM (inactive)
GI50 [57]: 17.8 µM (inactive)
